Measured values: US10770169B2, “Method of providing a treatment to a subject based on a dynamic pathway map” (THE REGENTS OF THE UNIVERSITY OF CALIFORNIA, priority 2010, dated 2020)

Tested on: panel of 55 breast cancer cell lines
Experiment: Cell growth inhibition assay (Cell Titer Glo, 72 h, 9 doses; GI50, TGI, LC50)
Type: cell-based, human
Settings: value is the negative log10 of mol/L

Question: How did the GI50 (600MPE cell line, censored GI50 values) turn out when `CC(C)[C@H](CO)Nc1nc(Nc2cccc(Cl)c2)c2ncn(C(C)C)c2n1` [Purvalanol A] was run?
Answer: 4.52

Question: And the GI50 (AU565 cell line, censored GI50 values)?
Answer: 5.01

Question: And the GI50 (BT20 cell line, censored GI50 values)?
Answer: 4.56

Question: And the GI50 (BT483 cell line, censored GI50 values)?
Answer: 4.40

Question: What about the GI50 (HCC202 cell line, censored GI50 values) of the same molecule?
Answer: 3.99

Question: And the GI50 (HCC1187 cell line, censored GI50 values)?
Answer: 4.74

Question: What about the GI50 (HCC1428 cell line, censored GI50 values) of the same molecule?
Answer: 4.44

Question: What about the GI50 (HCC1806 cell line, censored GI50 values) of the same molecule?
Answer: 4.00

Question: What about the GI50 (HCC1937 cell line, censored GI50 values) of the same molecule?
Answer: 4.97

Question: And the GI50 (HCC1954 cell line, censored GI50 values)?
Answer: 4.43

Question: What about the GI50 (HCC2185 cell line, censored GI50 values) of the same molecule?
Answer: 4.57

Question: And the GI50 (MCF7 cell line, censored GI50 values)?
Answer: 4.80

Question: And the GI50 (MDAMB134VI cell line, censored GI50 values)?
Answer: 4.26

Question: And the GI50 (MDAMB175VII cell line, censored GI50 values)?
Answer: 4.46

Question: And the GI50 (MDAMB468 cell line, censored GI50 values)?
Answer: 4.12

Question: What about the GI50 (SKBR3 cell line, censored GI50 values) of the same molecule?
Answer: 4.60

Question: And the GI50 (SUM52PE cell line, censored GI50 values)?
Answer: 4.79

Question: And the GI50 (SUM149PT cell line, censored GI50 values)?
Answer: 4.88

Question: And the GI50 (SUM185PE cell line, censored GI50 values)?
Answer: 4.69

Question: What about the GI50 (SUM225CWN cell line, censored GI50 values) of the same molecule?
Answer: 4.28

Question: And the GI50 (SUM1315MO2 cell line, censored GI50 values)?
Answer: 5.09

Question: What about the GI50 (ZR751 cell line, censored GI50 values) of the same molecule?
Answer: 4.01

Question: What about the GI50 (cell line 600MPE) of the same molecule?
Answer: 4.52

Question: What about the GI50 (cell line AU565) of the same molecule?
Answer: 5.01

Question: And the GI50 (cell line BT20)?
Answer: 4.56

Question: And the GI50 (cell line BT474)?
Answer: 3.78

Question: And the GI50 (cell line BT483)?
Answer: 4.40

Question: And the GI50 (cell line BT549)?
Answer: 3.78

Question: What about the GI50 (cell line CAMA1) of the same molecule?
Answer: 3.86

Question: What about the GI50 (cell line HCC70) of the same molecule?
Answer: 3.78

Question: And the GI50 (cell line HCC202)?
Answer: 3.99

Question: And the GI50 (cell line HCC1143)?
Answer: 3.78

Question: And the GI50 (cell line HCC1187)?
Answer: 4.74

Question: And the GI50 (cell line HCC1395)?
Answer: 3.78

Question: What about the GI50 (cell line HCC1419) of the same molecule?
Answer: 3.78

Question: And the GI50 (cell line HCC1428)?
Answer: 4.44

Question: What about the GI50 (cell line HCC1500) of the same molecule?
Answer: 3.95

Question: And the GI50 (cell line HCC1806)?
Answer: 4.00

Question: What about the GI50 (cell line HCC1937) of the same molecule?
Answer: 4.97

Question: And the GI50 (cell line HCC1954)?
Answer: 4.43

Question: What about the GI50 (cell line HCC2185) of the same molecule?
Answer: 4.57

Question: And the GI50 (cell line HCC3153)?
Answer: 3.83

Question: What about the GI50 (cell line MCF7) of the same molecule?
Answer: 4.80

Question: What about the GI50 (cell line MDAMB134V) of the same molecule?
Answer: 4.26

Question: And the GI50 (cell line MDAMB157)?
Answer: 3.78

Question: And the GI50 (cell line MDAMB175V)?
Answer: 4.46

Question: What about the GI50 (cell line MDAMB231) of the same molecule?
Answer: 3.78

Question: And the GI50 (cell line MDAMB361)?
Answer: 3.78

Question: And the GI50 (cell line MDAMB436)?
Answer: 3.78

Question: What about the GI50 (cell line MDAMB468) of the same molecule?
Answer: 4.12

Question: What about the GI50 (cell line SKBR3) of the same molecule?
Answer: 4.60

Question: And the GI50 (cell line SUM52PE)?
Answer: 4.79

Question: What about the GI50 (cell line SUM149PT) of the same molecule?
Answer: 4.88

Question: And the GI50 (cell line SUM159PT)?
Answer: 3.78

Question: What about the GI50 (cell line SUM185PE) of the same molecule?
Answer: 4.69

Question: And the GI50 (cell line SUM225CWN)?
Answer: 4.28

Question: And the GI50 (cell line SUM1315MO)?
Answer: 5.09

Question: And the GI50 (cell line T47D)?
Answer: 3.78

Question: What about the GI50 (cell line UACC893) of the same molecule?
Answer: 3.78

Question: What about the GI50 (cell line ZR75B) of the same molecule?
Answer: 3.78

Question: And the GI50 (cell line ZR751)?
Answer: 4.01
